Measurements: ChEMBL document CHEMBL5257082, “Bacterial GTPases as druggable targets to tackle antimicrobial resistance” (Bioorg Med Chem Lett, 2023)
Values after ≈ are worked out from the molar mass of the structure shown.

Tests used:
Pseudomonas aeruginosa = assay: Antibacterial activity against Pseudomonas aeruginosa; type: functional
Staphylococcus aureus [1] = assay: Antibacterial activity against Staphylococcus aureus; type: functional
Enterococcus faecalis = assay: Antibacterial activity against Enterococcus faecalis; type: functional
Klebsiella pneumoniae = assay: Antibacterial activity against Klebsiella pneumoniae; type: functional
Escherichia coli = assay: Antibacterial activity against Escherichia coli; type: functional
Acinetobacter baumannii = assay: Antibacterial activity against Acinetobacter baumannii; type: functional
Micrococcus luteus = assay: Antibacterial activity against Micrococcus luteus; type: functional
Staphylococcus aureus [2] = assay: Antibacterial activity against methicillin-resistant Staphylococcus aureus; type: functional
Neisseria meningitidis = assay: Antibacterial activity against Neisseria meningitidis; type: functional
Streptococcus pyogenes = assay: Antibacterial activity against Streptococcus pyogenes; type: functional
Staphylococcus aureus [3] = assay: Antibacterial activity against vancomycin-resistant Staphylococcus aureus; type: functional
Staphylococcus aureus [4] = assay: Antibacterial activity against linezolid-nonsusceptible Staphylococcus aureus; type: functional
[5] = Intrinsic clearance in BALB/c mouse at 24 mg/kg, iv; type: ADME, organism-based; details: in vivo
Enterococcus faecium = assay: Antibacterial activity against Enterococcus faecium; type: functional
Neisseria gonorrhoeae = assay: Antibacterial activity against Neisseria gonorrhoeae; type: functional
Haemophilus influenzae = assay: Antibacterial activity against Haemophilus influenzae; type: functional
[6] = target: T1, Cell division protein FtsZ (Staphylococcus aureus, UniProt P0A031); assay: Inhibition of Staphylococcus aureus FTsZ GTPase activity
T1 sequence (P0A031 whole entry): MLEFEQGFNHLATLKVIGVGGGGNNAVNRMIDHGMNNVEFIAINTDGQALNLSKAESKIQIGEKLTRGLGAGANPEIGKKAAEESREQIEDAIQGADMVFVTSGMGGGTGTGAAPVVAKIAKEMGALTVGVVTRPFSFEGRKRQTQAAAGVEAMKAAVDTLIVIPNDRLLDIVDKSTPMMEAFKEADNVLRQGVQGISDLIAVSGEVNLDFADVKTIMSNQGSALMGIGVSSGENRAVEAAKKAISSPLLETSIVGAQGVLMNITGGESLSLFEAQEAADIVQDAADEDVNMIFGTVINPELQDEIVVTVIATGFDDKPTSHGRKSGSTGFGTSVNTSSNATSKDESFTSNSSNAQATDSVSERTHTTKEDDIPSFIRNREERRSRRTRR

Streptococcus pneumoniae = assay: Antibacterial activity against Streptococcus pneumoniae; type: functional
Bacillus subtilis = assay: Antibacterial activity against Bacillus subtilis; type: functional

Row | SMILES | MIC (Staphylococcus aureus [1]) | MIC (Enterococcus faecalis) | MIC (Escherichia coli) | MIC (Staphylococcus aureus [2]) | also measured
1 | CO[C@@H]1[C@H](O)[C@@H](OC)[C@H](O[C@@H](C)[C@@H](O)/C=C/C=C/C=C/C(=O)[C@@H](C)[C@@H](O)[C@H](C)C2C/C=C/C=C/C=C/[C@H](O)C(=O)/C(C)=C/C=C/C(C)=C/[C@@H](O)/C(C)=C/CC(=O)O2)O[C@@H]1C (some centres undefined) | 2 µg/mL (≈ 2.38 µM) | 32 µg/mL (≈ 38.1 µM) | 32 µg/mL (≈ 38.1 µM) |  | MIC (Pseudomonas aeruginosa): 32 µg/mL (≈ 38.1 µM); MIC (Klebsiella pneumoniae): > 128 µg/mL; MIC (Acinetobacter baumannii): 32 µg/mL (≈ 38.1 µM)
2 | O=C(O)c1[nH]c2ccc(Cl)cc2c1CC(=O)N1CCN(c2ccc(C(F)(F)F)cc2)CC1 | > 50 µg/mL |  | > 200 µg/mL |  | 
3 | CC(=O)O[C@H]1C[C@@]2(C)[C@@H](C[C@@H](O)[C@H]3[C@@]4(C)CC[C@@H](O)[C@@H](C)[C@@H]4CC[C@@]32C)/C1=C(\CCC=C(C)C)C(=O)O [FUSIDIC ACID] |  | 2 µg/mL (≈ 3.87 µM) | > 32 µg/mL | 0.25 µg/mL (≈ 0.484 µM) | MIC (Micrococcus luteus): 0.5 µg/mL (≈ 0.968 µM); MIC (Neisseria meningitidis): 0.25 µg/mL (≈ 0.484 µM); MIC (Streptococcus pyogenes): 16 µg/mL (≈ 31 µM)
4 | Cc1cc(Cl)ccc1OC(C)C(=O)Nc1ccc(C(=O)Nc2ccccc2C(=O)O)cc1 (centres undefined) | > 25 µg/mL |  | > 200 µg/mL |  | 
5 | CN1CCC(C(=O)NC(=O)c2c(F)ccc(OCc3nc4cc(C(F)(F)F)cnc4s3)c2F)CC1 |  |  |  | 2 µg/mL (≈ 3.89 µM) | MIC (Staphylococcus aureus [3]): 2 µg/mL (≈ 3.89 µM); MIC (Staphylococcus aureus [4]): 2 µg/mL (≈ 3.89 µM); CL [5]: 9.4 mL/min/kg
6 | COc1ccc(/C=C(\C#N)C(=O)Nc2cccc(C(=O)O)c2)cc1OC(=O)c1cccc2ccccc12 | > 50 µg/mL |  | > 200 µg/mL |  | 
7 | CC/C=C/[C@@H](OC(N)=O)[C@@H](Cl)[C@H](O)CC(=O)[C@@H](O)[C@H](O)C(C)/C(Cl)=C/C=C/C=C(C)/C=C/C=C/C(=O)O[C@@H]1CC(C(=O)O)CC[C@@H]1O (some centres undefined) | 2 µg/mL (≈ 2.85 µM) |  |  |  | MIC (Pseudomonas aeruginosa): > 32 µg/mL; MIC (Acinetobacter baumannii): > 32 µg/mL
8 | C/C=C\C=C\[C@@H]1C[C@](O)([C@H](CC)C(=O)NC/C=C/C=C(\C)[C@H](OC)[C@H](C)C2O[C@H](/C=C/C=C/C=C(\C)C(=O)c3c(O)cc[nH]c3=O)[C@H](O)[C@@H]2O)[C@H](O)[C@H](O)C1(C)C (some centres undefined) | > 32 µg/mL | > 32 µg/mL | > 128 µg/mL |  | MIC (Enterococcus faecium): 2 µg/mL (≈ 2.52 µM); MIC (Neisseria gonorrhoeae): 0.06 µg/mL (≈ 0.0755 µM); MIC (Haemophilus influenzae): 4 µg/mL (≈ 5.03 µM)
9 | NC(=O)c1c(F)ccc(OCc2nc3cc(Cl)cnc3s2)c1F |  | > 64 µg/mL | > 64 µg/mL | 1 µg/mL (≈ 2.81 µM) | IC50 [6]: 150 nM; MIC (Streptococcus pyogenes): > 64 µg/mL; MIC (Streptococcus pneumoniae): > 64 µg/mL; MIC (Bacillus subtilis): 1 µg/mL (≈ 2.81 µM); CL [5]: 55.11 mL/min/kg
